# From US6613322B2, “Method for treating a subject suffering from conditions associated with an extracellular zinc sphingomyelinase” (The Trustees of Columbia University in the City of New York, priority 1997, dated 2003)
# T1: L-SMase (Mus musculus, UniProt Q04519)
# T1 construct: endogenous in cells; host or cells: J774.A1 macrophages, sonicated cell homogenate
# T1 sequence (Q04519 45-627): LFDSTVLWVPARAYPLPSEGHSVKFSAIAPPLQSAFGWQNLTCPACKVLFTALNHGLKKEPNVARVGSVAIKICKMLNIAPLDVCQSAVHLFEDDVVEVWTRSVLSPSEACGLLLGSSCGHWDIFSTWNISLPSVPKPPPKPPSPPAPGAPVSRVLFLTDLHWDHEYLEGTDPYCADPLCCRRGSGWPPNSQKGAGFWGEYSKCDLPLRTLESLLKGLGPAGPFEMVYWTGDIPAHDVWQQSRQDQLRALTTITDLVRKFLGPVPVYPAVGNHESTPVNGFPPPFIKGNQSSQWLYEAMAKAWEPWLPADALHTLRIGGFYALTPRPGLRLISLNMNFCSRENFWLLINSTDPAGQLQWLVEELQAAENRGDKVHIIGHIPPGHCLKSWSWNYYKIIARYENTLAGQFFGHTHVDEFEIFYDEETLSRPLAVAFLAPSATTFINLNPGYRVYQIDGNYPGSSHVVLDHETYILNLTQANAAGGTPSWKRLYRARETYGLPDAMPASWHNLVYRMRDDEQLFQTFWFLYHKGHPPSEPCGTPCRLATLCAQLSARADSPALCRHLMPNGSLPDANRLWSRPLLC
# T2: S-SMase (Mus musculus, UniProt Q04519)
# T2 construct: endogenous in cells; host or cells: J774.A1 macrophages, serum-free conditioned medium
# T2 sequence (Q04519 45-627): T1 sequence (Q04519 45-627)
# T3: lysosomal SMase (Homo sapiens, UniProt P17405)
# T3 construct: endogenous in cells; host or cells: cultured human fibroblasts
# T3 sequence (P17405 47-631): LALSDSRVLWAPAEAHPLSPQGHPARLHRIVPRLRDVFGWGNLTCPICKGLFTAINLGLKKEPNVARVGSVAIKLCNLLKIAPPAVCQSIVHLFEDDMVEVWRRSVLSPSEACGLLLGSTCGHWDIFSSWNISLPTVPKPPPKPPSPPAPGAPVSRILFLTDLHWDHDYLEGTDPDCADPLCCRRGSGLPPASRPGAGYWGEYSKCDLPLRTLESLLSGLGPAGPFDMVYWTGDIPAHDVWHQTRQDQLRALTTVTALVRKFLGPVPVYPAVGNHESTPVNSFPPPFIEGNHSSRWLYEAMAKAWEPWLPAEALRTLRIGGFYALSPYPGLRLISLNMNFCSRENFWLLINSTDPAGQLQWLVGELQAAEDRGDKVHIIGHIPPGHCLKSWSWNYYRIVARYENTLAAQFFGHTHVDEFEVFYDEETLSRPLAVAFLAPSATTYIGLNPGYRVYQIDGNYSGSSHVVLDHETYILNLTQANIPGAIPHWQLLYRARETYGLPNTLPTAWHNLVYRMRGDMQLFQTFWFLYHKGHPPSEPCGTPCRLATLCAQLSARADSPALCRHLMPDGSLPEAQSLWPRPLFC
# B1: interferon-γ: human recombinant interferon-γ (protein, UniProt P01579 24-161, looked up)
# Interferon gamma: QDPYVKEAENLKKYFNAGHSDVADNGTLFLGILKNWKEESDRKIMQSQIVSFYFKLFKNFKDDQSIQKSVETIKEDMNVKFFNSNKKKRDDFEKLTNYSVTDLNVQRKAIHELIQVMAELSPAAKTGKRKRSQMLFRG
# B2: lipoprotein lipase: arterial-wall enzyme (protein, UniProt P06858 28-475, looked up)
# Lipoprotein lipase: ADQRRDFIDIESKFALRTPEDTAEDTCHLIPGVAESVATCHFNHSSKTFMVIHGWTVTGMYESWVPKLVAALYKREPDSNVIVVDWLSRAQEHYPVSAGYTKLVGQDVARFINWMEEEFNYPLDNVHLLGYSLGAHAAGIAGSLTNKKVNRITGLDPAGPNFEYAEAPSRLSPDDADFVDVLHTFTRGSPGRSIGIQKPVGHVDIYPNGGTFQPGCNIGEAIRVIAERGLGDVDQLVKCSHERSIHLFIDSLLNEENPSKAYRCSSKEAFEKGLCLSCRKNRCNNLGYEINKVRAKRSSKMYLKTRSQMPYKVFHYQVKIHFSGTESETHTNQAFEISLYGTVAESENIPFTLPEVSTNKTYSFLIYTEVDIGELLMLKLKWKSDSYFSWSDWWSSPGFAIQKIRVKAGETQKKVIFCSREKVSHLQKGKAPAVFVKCHDKSLNKKSG
# What was measured:
# L-SMase = molecular target: T1, L-SMase; experiment: SMase assay of cell homogenate from J774 macrophages (SM micelles, pH 5.0); format: biochemical; details: 5 mM EDTA in assay
# Protocol: FIGS. 14A-B. Sequential chelation and addition of Zn^2+ to secreted and intracellular SMase. Serum-free conditioned medium and a cell homogenate from J774 macrophages were prepared as described in “Experimental Procedures”. FIG. 14A, conditioned medium (CM) was assayed for SMase activity using 250 nM [^3H]sphingomyelin in Triton X-100 micelles in the presence of either 5 mM EDTA (first bar) or 0.1 mM ZnCl2 (second bar) for 1 h at 37° C. at pH 5.0. An aliquot of the Zn-activated conditioned medium was then incubated for 18 h in the presence of 10 mM EDTA, 10 mM 1,10-phenanthroline, and 0.6% Triton X-100 at 4° C. (EDTA PHNANTH) and then assayed for SMase activity (third bar). […]
# (§1) SMase Assay—As previously described (Schissel et al., 1996), the standard 200-μl assay mixture consisted of up to 40 μl of sample (conditioned media or homogenized cells; see above) and a volume of assay buffer (0.1 M sodium acetate, pH 5.0) to bring the volume to 160 μl. […] The ceramide spots were scraped and directly counted to quantify [^3H]ceramide. Typically, the assay reactions contained approximately 20 μg of cellular homogenate protein and a volume of conditioned media derived from a quantity of cells equivalent to approximately 50 μg of cellular protein.
# S-SMase = molecular target: T2, S-SMase; experiment: SMase assay of conditioned medium from J774 macrophages (SM micelles, pH 5.0); format: biochemical; details: treatment with EDTA alone
# Protocol: FIGS. 14A-B. Sequential chelation and addition of Zn^2+ to secreted and intracellular SMase. Serum-free conditioned medium and a cell homogenate from J774 macrophages were prepared as described in “Experimental Procedures”. FIG. 14A, conditioned medium (CM) was assayed for SMase activity using 250 nM [^3H]sphingomyelin in Triton X-100 micelles in the presence of either 5 mM EDTA (first bar) or 0.1 mM ZnCl2 (second bar) for 1 h at 37° C. at pH 5.0. An aliquot of the Zn-activated conditioned medium was then incubated for 18 h in the presence of 10 mM EDTA, 10 mM 1,10-phenanthroline, and 0.6% Triton X-100 at 4° C. (EDTA PHNANTH) and then assayed for SMase activity (third bar). After chelation, a portion of this partially inactivated conditioned medium was then dialyzed against zinc-containing buffer C (150 mM NaCl, 10 mM Tris-HCl, 1 mM ZnCl2, 0.6% Triton X-100, pH 7.4) for 18 h and then assayed for SMase activity (fourth bar). FIG. 14B, an aliquot of cell homogenate (Cell Homgn) was assayed for SMase activity in the presence of assay buffer alone (first bar), 5 mM EDTA (second bar), or 0.1 mM ZnCl2 (third bar). Another aliquot of cell homogenate was incubated for 8 h in the presence of 10 mM EDTA, 10 mm 1,10-phenanthroline, and 0.6% Triton X-100 (EDTA PHNANTH) at 4° C. and then assayed for SMase activity (fourth bar). An aliquot of this chelator-treated cell homogenate was then dialyzed against zinc-containing buffer C for 18 h and then assayed for SMase activity (fifth bar).
# as §1
# arterial-wall SMase = details: for hydrolysis of LDL-sphingomyelin by rabbit aorta ex vivo (summary statement): Example 4 restatement
# Protocol: Hydrolysis of [^3H]SM-LDL by strips of rabbit aorta. Aortae were isolated from rabbits fed a high-cholesterol diet for 18 d and incubated ex vivo for 3.5 h at 37° C. with 2 mg [^3H]palmitate-SM-labeled LDL per ml DMEM/0.2% BSA (usually ^18 12 mg total). Material extracted from these strips (Retained) was assayed for [^3H]SM and [^3H]ceramide; approximately 0.1% of the [^3H]SM-LDL (10-20 μg LDL protein) was retained during the 3.5-h incubation period. These [^3H]lipids were also assayed in ^3[H]SM-LDL not exposed to aorta but incubated in extraction buffer (No Aorta) as well as in [^3H]SM-LDL that was not retained by the aortic strips (i.e., still present in the medium after the 3.5-h incubation) and also incubated in extraction buffer (Unretained). For experiments #1 and #2 (FIG. 6A), portions of the aortic strips were preincubated with DMEM/0.2% BSA containing 15 mM EDTA for 30 min, and the 3.5-h incubation was also carried out in the presence of 15 mM EDNA.
# Assay for LDL-SM hydrolysis by strips of rabbit aorta ex vivo. New Zealand white male rabbits (2-3 kg) were fed a chow diet containing 0.2% cholesterol and 10% soybean oil (w/w) for 18 days. The animals were sacrificed, and the thoracic aortae were removed rapidly and placed in a dissection dish with physiological Hank's Trizma maleate buffer (133 mM NaCl, 3.6 mM KCl, 1.0 mM CaCl2, 5.0 mM Trizma maleate, 16 mM dextrose, pH 7.3). The aortae were then further dissected to remove excess fat and any clotted blood and then cut longitudinally and pinned, lumen side up, in a tissue culture dish. The aortic strips were washed several times with DMEM/0.2% BSA and incubated at 37° C. for 3.5 h in DMEM/0.2% BSA containing 2 mg [^3H]SM-labeled LDL per ml. […] When present, these reagents were also added to the corresponding incubation media containing labeled LDL (see legend to FIG. 5). After the 3.5-h incubation of labeled LDL with aortic strips, media were removed (see below), the aortic strips were quickly washed twice in ice-cold PBS, and the center of the strip was cut away from the original cut ends. These center pieces were then minced and extracted in PBS, pH 7.4, containing 6 M guanidine-HCl, 5 mM EDTA, 0.02% sodium azide, 35 μM leupeptin, 1.5 mg aprotinin/ml, and 5 μM pepstatin A for 36 h at 4° C. The extract was centrifuged at 35,000×g for 30 min, and lipids were extracted from the supernate by the method of Bligh and Dyer (Bligh et al., 1959). [^3H]palmitate-SM, ^3 [H]palmitate-ceramide, and free [^3H]palmitate in the lipid extracts were separated by TLC using chloroform:methanol (95:5, v/v) or n-propanol:12.5% ammonium hydroxide (80:20, v/v). […]
# B. cereus SMase = B. cereus SMase (Bacillus cereus, UniProt P11889); details: 25 mM EDTA present from the start; 50 mU B. cereus SMase/ml, LDL 2 mg/ml, 37° C.
# Protocol: Kinetics of SM hydrolysis and LDL aggregation induced by SMase and the effects of enzymatic inhibition. FIG. 1A: LDL (2 mg/ml) was incubated with 50 mU B. cereus SMase/ml at 37° C. in PES containing 5 nM MgCl2. At the indicated time points, aliquots of the LDL were harvested then assayed for extent of SM hydrolysis (closed triangles) and for aggregation (open squares) FIG. 1B. LDL was incubated in PBS containing 5 mM MgCl2 in the absence of SMase (filled circles), or in the presence of SMase without EDTA (open squares), with 25 mM EDTA present from the start of the incubation (open triangles), or with 25 mM EDTA added after 20 min of incubation (closed triangles) Samples were assayed for turbidity at the indicated timepoints. FIG. 1C, Aliquots from the 180-min timepoint in FIG. 1B were assayed for SM content.
# Careful analysis of the time course of B. cereus SMase-induced LDL aggregation and LDL-SM hydrolysis was done. […] These kinetics are consistent with two possible mechanisms: a slow structural action of SMase, or a rapid enzymatic action that alters the particles so that they then slowly aggregate. To distinguish between these possibilities, EDTA was used to inhibit the enzymatic activity of the bacterial B. cereus SMase, which is a Mg^2+-dependent enzyme (Ikezawa et al., 1986).
# lysosomal hydrolases = experiment: 125I-EGF degradation by aortic strips; parameters: species or system rabbit; details: 200 μM chloroquine, 3.5 h
# Protocol: Iodination of EGF and assay for ^125I-EGF degradation. Epidermal growth factor (50 μg) was radioiodinated to a specific activity of 5400 counts/min/ng (IODOBEADS®, Pierce Chemical Co., Rockford, Ill.) and was used within 48 h of labeling.
# For this study, ^125I-labeled epidermal growth factor (^125I-EGF) was used, which is known to be internalized by receptor-mediated endocytosis and degraded in lysosomes in many cell types (Goldstein et al., 1985).
# lysosomal SMase = molecular target: T3, lysosomal SMase; experiment: Cellular hydrolysis of [3H]SM-LDL by cultured human fibroblasts; format: cell-based; details: read-out: inhibition of cellular hydrolysis of [3H]SM-LDL
# Protocol: Second, the ability of chloroquine to work in the aortic strip assay was tested.
# L-SMase of HUVECs = experiment: Cytokine regulation of L-SMase activity in HUVEC cell homogenates; format: cell-based, human; details: cytokine-treated endothelial cells
# Protocol: FIGS. 23A-B. Cytokine regulation of S- and L-SMase of HUVECs. […] Conditioned media (FIG. 23A) and cell homogenates (FIG. 23B) from these cells were then assayed for SMase activity in the presence or absence of 0.1 mM ZnCl2, respectively.
# Cells—Primary cultures of HUVEC were obtained from fresh umbilical cords and maintained in cell culture as previously described (31). Human coronary artery endothelial cells from a donor were purchased from Clonetics Corp. (San Diego, Calif.; cat. # CC-2585, Strain #3033). The cells were grown in endothelial basal media (EBM) (Clonetics) supplemented with 10% HI-FES; 10 μg endothelial cell growth supplement/ml (Sigma; cat. # E0760) and 50 μg gentamicin/ml. Primary cultures of bovine aortic endothelial, cells were established and subcultured as described previously (32). […]
# [1] = tested on: S-SMase secretion by HUVECs; experiment: Cytokine regulation of S-SMase secretion by HUVECs (SMase activity in conditioned media); format: cell-based, human; details: 18 h, IL-1β 5 ng/ml, interferon-γ 1000 units/ml
# Protocol: The cells were then washed 3 times with PBS and incubated for 24 h in 1 ml fresh serum-free media containing 0.2%6 BSA. This 24-h conditioned medium was collected for SMase assays.
# Harvesting of Cells and Conditioned Media—Following the incubations described above and in the figure legends, cells were placed on ice and the serum-free conditioned media was removed. The cells were washed two times with ice-cold 0.25 M sucrose and scraped into 0.3 ml and 3.0 ml of this sucrose solution per 35-mm and 100-mm dishes, respectively. Unless indicated otherwise, the scraped cells were disrupted by sonication on ice using three 5-second bursts (Branson 450 Sonifier), and the cellular homogenates were assayed for total protein by the method of Lowry et al. (22) and for SMase activity as described below. The conditioned media were spun at 800×g for 5 min to pellet any contaminating cells and concentrated six-fold using a Centriprep 30 (Amicon; Beverly, Mass.) concentrator (molecular weight cut off=30,000).
# Typically, our assay reactions contained approximately 20 μg of cellular homogenate protein and a volume of conditioned media derived from a quantity of cells equivalent to approximately 50 μg of cellular protein.
# EC matrix = experiment: 125I-S-SMase binding to matrix derived from cultured cells; details: in presence of lipoprotein lipase
# From the text: In vitro, Smase causes lipoprotein aggregation, which is a key feature of atheromata and an inducer of foam cells. […] We have identified S-Mase (JBC 271:18431) as a candidate for this arterial Smase, owing to its secretion by endothelial cells (ECs) and macrophages and for its ability to hydrolzye atherogenic lipoproteins (JBC 273:2738 & 4081). We addressed two questions critical to the role of S-SMase in atherogenesis: is S-SMase present in lesions and does S-SMase bind matrix after secretion? Using two different anti-SMase antibodies, Smase staining was prominent in the endothelium of normal rabbit and mouse aorta. In atherosclerotic aorta from cholesterol-fed rabbits and apoE knockout mice and in human coronary lesions, there was very heavy Smase staining throughout the entire intima (endothelium and foam cells). In both normal and lesional aorta, there was staining of the mdia but far less than in the intima. […] To explore this point in vitro, ^125I-S-SMase was incubated with matrix derived from cultured smooth muscle or Ecs. With both, the moles of bound ^125I-S-SMase were≧bound ^125I-LDL, which is known to associate with matrix in vitro and in vivo. […] In summary, Smase, an enzyme implicated in atherogenesis, is present in normal endothelium and especially lesional intima, and there is evidence that S-Mase binds matrix both in vivo and in vitro.
# B. cereus SMase, sequence (P11889 28-333): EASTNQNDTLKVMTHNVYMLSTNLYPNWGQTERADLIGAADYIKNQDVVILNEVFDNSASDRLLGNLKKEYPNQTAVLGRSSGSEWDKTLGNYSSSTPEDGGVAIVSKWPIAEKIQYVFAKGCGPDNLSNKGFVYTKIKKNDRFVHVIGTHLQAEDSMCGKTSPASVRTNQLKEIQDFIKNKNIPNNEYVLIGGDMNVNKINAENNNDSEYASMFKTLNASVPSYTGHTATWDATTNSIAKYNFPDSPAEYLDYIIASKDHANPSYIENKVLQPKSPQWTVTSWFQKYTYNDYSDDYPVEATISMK
molecule,measurement,setting,value
O=C(O)CN(CCN(CC(=O)O)CC(=O)O)CC(=O)O [EDTA],inhibition of L-SMase in cell homogenates,L-SMase,not inhibited
same,effect on S-SMase enzyme activity,S-SMase,did not affect enzyme activity
same,decrease in generation of ceramide in extracted (retained) material,"arterial-wall SMase; 15 mM EDTA, 30 min preincubation and 3.5-h incubation with [3H]SM-LDL",approximately 50%
same,hydrolysis of LDL-sphingomyelin by rabbit aorta ex vivo (summary statement),arterial-wall SMase,inhibited
same,inhibition of LDL aggregation (turbidity),B. cereus SMase,complete inhibition
same,inhibition of LDL-SM hydrolysis,B. cereus SMase,complete inhibition
CCN(CC)CCCC(C)Nc1ccnc2cc(Cl)ccc12 (stereo not shown) [chloroquine],block of degradation of 125I-EGF,lysosomal hydrolases,50%
same,inhibition of [3H]ceramide enrichment of retained material,"arterial-wall SMase; 200 μM chloroquine, 30 min preincubation and 3.5-h incubation",no substantial inhibition
same,hydrolysis of LDL-sphingomyelin by rabbit aorta ex vivo (summary statement),arterial-wall SMase,not inhibited
same,inhibition at 50 µM,lysosomal SMase,73%
B1,L-SMase (lysosomal SMase) activity,L-SMase of HUVECs,decreased
same,increase of S-SMase activity / secretion (conditioned media),[1],~3 fold
B2,S-SMase binding to matrix,EC matrix,enhanced
